# Test results published in publication PMC3495945, “Org 214007-0: A Novel Non-Steroidal Selective Glucocorticoid Receptor Modulator with Full Anti-Inflammatory Properties and Improved Therapeutic Index” (PLoS ONE, 2012).
# Legend:
# [1] = test system: coronary artery smooth muscle cells; assay: BioMAP assay CASM3C; type: cell-based, human; settings: 1 μM, prednisolone = 100%
# Description: Next, effects of Org 214007-0 on the cytokine release by primary human whole blood cells treated with either LPS or anti-CD28/PMA were tested. […] These assays make use of different types of primary human cells, in this case coronary artery smooth muscle cells and neonatal foreskin fibroblasts, in an inflammatory environment, [28]. […] When all repressed and induced proteins are taken into account, a relative TI value for Org 214007-0 could be deduced of 1.7 in coronary artery smooth muscle cells and of 2.2 in neonatal foreskin fiboblasts.
# [2] = Mouse fasting blood glucose; type: in vivo; settings: oral daily 28 days; prednisolone 0.5 or 10 mg/kg/day, Org 214007-0 0.17 or 1.5 mg/kg/day; 9 hours fasting
# Description: Eighteen hours after the last oral treatment and 9 hours after start of starvation, blood samples were taken from the tail vein and directly used for glucose measurements using “One touch Ultra” glucose meter from Lifescan EuroFlash (Lifescan Benelux Beerse, Belgium). The mouse MIDA study was performed as described previously by van Dijk et al., [52]. […] On the third day, mice were cannulated in the right jugular vein. After 7 days of treatment, mice were placed in small Plexiglas cages, which allowed collection of blood samples frequently in freely moving mice. […] During the experiment blood glucose was measured and blood spots for GCMS measurements were collected from tail tips just before the start of the infusion and at hourly intervals. […] Glucose and paracetamol-glucuronic acid (Par-GLcUa) were extracted from blood spot and urine filter papers, respectively, derivatised, and measured by GC-MS, essentially as described previously, [52]. […] From isotope dilution and infusion rates, the flux rates of the following metabolic pathways could be calculated: 1) de novo synthesis of G6P, 2) glucokinase, 3) glucose-6-phosphatase, 4) glycogenolysis, and 5) glycogen synthesis. […]
# GR = biological target: T1, GR (Homo sapiens, UniProt P04150); assay: ChIP-Seq analysis of GR binding to DNA in THP-1 cells; type: cell-based; set-up: endogenous in cells; host or cells: THP-1; settings: for number of ChIP-Seq clusters compared to vehicle: THP-1, 1 μM, 1 hour
# T1 sequence (P04150 1-777): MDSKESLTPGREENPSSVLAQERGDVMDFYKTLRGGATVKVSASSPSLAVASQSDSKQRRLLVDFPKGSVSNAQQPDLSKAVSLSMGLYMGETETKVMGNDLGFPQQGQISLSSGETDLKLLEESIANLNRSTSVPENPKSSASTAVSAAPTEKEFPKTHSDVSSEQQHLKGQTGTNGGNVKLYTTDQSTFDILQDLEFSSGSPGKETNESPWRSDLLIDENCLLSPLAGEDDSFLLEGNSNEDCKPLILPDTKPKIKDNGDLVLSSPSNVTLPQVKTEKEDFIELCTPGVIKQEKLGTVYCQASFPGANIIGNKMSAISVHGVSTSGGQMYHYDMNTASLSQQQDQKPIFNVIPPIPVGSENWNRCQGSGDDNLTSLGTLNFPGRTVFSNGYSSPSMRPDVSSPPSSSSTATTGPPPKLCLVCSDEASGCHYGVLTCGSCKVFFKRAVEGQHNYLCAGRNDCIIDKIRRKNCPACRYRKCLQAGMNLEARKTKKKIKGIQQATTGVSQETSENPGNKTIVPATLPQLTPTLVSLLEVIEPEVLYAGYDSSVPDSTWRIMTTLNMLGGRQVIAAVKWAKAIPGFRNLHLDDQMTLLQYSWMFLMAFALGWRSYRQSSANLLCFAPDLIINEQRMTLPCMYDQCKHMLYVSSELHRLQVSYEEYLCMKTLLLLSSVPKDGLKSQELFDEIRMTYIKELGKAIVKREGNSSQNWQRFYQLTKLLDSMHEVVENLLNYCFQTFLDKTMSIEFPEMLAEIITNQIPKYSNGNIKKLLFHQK
# Description: From the THP-1 samples that were used for gene expression analysis after 6 hours, samples were drawn after 1 hour and used for ChIP–Seq analysis at Genpathway (Carlsbad, CA). For precipitation of genomic DNA regions antibody against GR (Santa Cruz sc-8992) was used. Details are provided in SI text. The obtained amplified DNA libraries were sent to Illumina Sequencing Services (San Diego, CA) for sequencing on a Genome Analyzer II. Sequence files were analyzed with the Genomatix Genome Analyzer Workbench from Genomatix (Genomatix Software GmbH, Munich). Sequences were clustered using default parameter settings and aligned against the human genome version GRCh37/hg19. Clusters were merged using the Replicate Analysis module from the Workbench package (more detailed information in SI text).
# Cells were fixed with 1% formaldehyde for 15 min and quenched with 0.125 M glycine. Chromatin was isolated by adding lysis buffer, followed by disruption with a Dounce homogenizer (cells) or motor pestle (tissue). Lysates were sonicated and the DNA sheared to an average length of 300-500 bp. Genomic DNA (Input) was prepared by treating aliquots of chromatin with RNase, proteinase K and heat for de-crosslinking, followed by ethanol precipitation. Pellets were resuspended and the resulting DNA was quantified on a NanoDrop spectrophotometer. Extrapolation to the original chromatin volume allowed quantitation of the total chromatin yield.
# An aliquot of chromatin (28.5 ug) was precleared with protein A agarose beads (Invitrogen). Genomic DNA regions of interest were isolated using 4 ug antibody against GR (Santa Cruz sc-8992). Complexes were washed, eluted from the beads with SDS buffer, and subjected to RNase and proteinase K treatment. Crosslinks were reversed by incubation overnight at 65 C, and ChIP DNA was purified by phenol-chloroform extraction and ethanol precipitation.
"binding sites also contained within the prednisolone set (GR; non-stimulated, 2080 vs 9413 sites)",SMILES,"Max. eff., induction of serum amyloid A (SAA) [1]",fasting blood glucose levels vs vehicle [2],number of ChIP-Seq clusters compared to vehicle (GR; inflammatory condition),number of ChIP-Seq clusters compared to vehicle (GR; non-stimulated condition)
99.5%,Cc1nnsc1C(=O)N[C@H]1CCN2c3ccc(C#N)cc3[C@@H](C)c3ccccc3[C@@H]2C1 [Org 214007-0],58%,not affected,2502,2080
–,"C[C@]12C=CC(=O)C=C1CC[C@@H]1[C@@H]2[C@@H](O)C[C@@]2(C)[C@H]1CC[C@]2(O)C(=O)CO [prednisolone, reference compound]",100%,significantly elevated,3471,9413
